Several values for one entry are separate records, joined by “and”; a condition that tells them apart may be missing. Equal entries are not always repeated. Where two headings read alike, the source gives them in different places. Non-standard residues stand in square brackets, D forms with d. Residues, ends and D or L forms follow the SMILES beside them. No end group written: not given here. *: point of attachment. epicN = C-terminal cyclic asparagine (aspartimide), (R)-epimer, epimer of cN, O=C1C[C@@H](N*)C(=O)N1; Aspartimide = O=C1C[C@H](N*)C(=O)N1; Fmoc = O=C(OCC1c2ccccc2-c2ccccc21)*; X3 = O=C1CC[C@@H](N*)C(=O)N1; X1 = O=C1C[C@@H](N*)C(=O)N1; X2 = O=C1CC[C@H](N*)C(=O)N1

Here are results for 25 molecules from PMC12117711, “The contribution of cyclic imide stereoisomers on cereblon-dependent activity†” (Chemical Science, 2025).

In one data set the target is His6-CRBN/DDB1 (Homo sapiens, UniProt Q96SW2). The data set can be described thus: TR-FRET ligand displacement assay (Thal-FITC tracer) with His6-CRBN/DDB1. The note with it: for IC50 / pIC50 (M): Thalidomide-FITC tracer 50 nM.
Data set [1] deals with T1, GSPT1-GFP in HEK293T cells (Homo sapiens, UniProt P15170+Q96SW2).
T1 construct: expressed in transfected cells
The data set is described as follows: Degradation assay by flow cytometry, GSPT1-GFP. It is filed as cell-based. The source says:
μg/mL), and 10% (v/v) FBS. […]
Degradation assay by flow cytometry
resuspension in DMEM +/– without phenol red. For IKZF1 degradation assay, propidium
equipped with a high throughput sampler.
using the BD FACSDiva software v9.1. For each experimental condition, the arithmetic mean
comparing compound treatment to DMSO control. […]
The same analysis was also applied to the (S)-
dependent activity, we adjusted the dose-response curves accordingly. Because dose-
within the error margins of the original curve.
squares F-test. This analysis determined whether there was a statistically significant
derived (S)-enantiomer. […]

Data set [2] is described as follows: Time-course study of racemization of lenalidomide, photo-lenalidomide and deuterated analogs in RPMI medium. The note with it: RPMI media, 37 °C, read-out: t50%ee (racemization half-life) (converted). In kind it is physicochemical. The method, then: Time-course Study of Racemization of Lenalidomide and Photo-lenalidomide in RPMI Medium To a 12-well plate, 25 μL of the indicated compound (4 mM stock solution in methanol) was added and methanol was air-dried. 1 mL of RPMI medium was added to each well containing the compound and the plate was incubated at 37 °C, 5% CO2. At the indicated time point, RPMI medium containing the compound was collected in a 5-mL Eppendorf tube, and 4 mL of HPLC-grade ethyl acetate was added to each tube. The tube was shaken for 2 min to extract the compounds into ethyl acetate. After two layers were separated, 3 mL was taken from the organic layer and filtered through sodium sulfate to remove residual water. To the same 5-mL Eppendorf tube, 3 mL of HPLC-grade ethyl acetate was added to repeat the extraction step.
The taken organic layers were combined and concentrated in vacuo to dryness. The sample was resuspended in HPLC grade isopropanol and analyzed with Waters Prep 150 LC System equipped with a chiral column with conditions indicated in the synthetic procedure.
The experimental data obtained were fitted to the following rate equation for racemization:1 […]
Where Y represents the ratio of the other enantiomer formed via racemization with constraints 2 of Top = 1 (100% conversion) and Bottom = 0 (0% conversion), Krac is the rate constant for the racemization, and t is incubation time. For the sake of symmetry, rate constants are the […]
In the analysis of the above curve fitting model, parameter estimation for Krac was carried out using nonlinear least squares regression, employing the “curve_fit” function from the SciPy library in Python. This approach yielded an estimated value for Krac. To ascertain the precision of this estimation and to quantify the associated uncertainty, the standard error of Krac was calculated based on the diagonal elements of the covariance matrix returned by the curve fitting procedure. Subsequently, to construct a 95% confidence interval for the extrapolated racemization curves, the t-distribution was employed, considering the degrees of freedom (the number of data points minus the number of fitted parameters). The critical t-value for a 95% confidence level was determined by using the “t.ppf” function from the SciPy library in Python, and the confidence interval for Krac was then derived as the following equation: […]
Where tcritical is the critical t-value for a 95% confidence level and SE(Krac) is the standard error […]
The upper and lower bounds of this interval were further utilized to generate the corresponding confidence bounds for the curve, offering a visual representation of the uncertainty inherent in […]

Data set [3] addresses His6-CRBN/DDB1 complex (UniProt Q96SW2).
The target in data set [4] is T2, His6-CRBN/DDB1 complex (UniProt Q96SW2 1-442; Q16531 1-1140).
T2 construct: cereblon (CRBN), E3 ligase substrate adapter; DDB1, in complex with His6-CRBN; Column 'Protein' of S0003 says only 'CRBN'; the text and legends name His6-CRBN/DDB1 for this TR-FRET assay; also called cereblon; source: recombinant
The data set can be described thus: AlphaScreen or HTRF; competitive TR-FRET ligand displacement; peptide titrated against recombinant His6-CRBN/DDB1 (2.5 nM) with the tracer Thalidomide-FITC (50 nM); KD from IC50 by the correction factor 1.426 (tracer KD 2-site 117.3 nM). The note with it: both partners purified.

Setting [5] is: IC50 (M), Protein CRBN, protein […].
The mark [6] stands for this setting: KD (M), Protein CRBN, from IC50 with Correction Factor 1.43.
Where [7] appears, read: KD (nM), Protein CRBN, from IC50 with Correction Factor 1.43.
[8] abbreviates: KD, competitive TR-FRET, His6-CRBN/DDB1.
Setting [9] is: HEK293T, 3 h, flow cytometry, read-out: DC50.
Where [10] appears, read: IC50 (nM), Protein CRBN, protein […].
Setting [11] is: Protein CRBN, from IC50 with Correction Factor 1.43.

As for `O=C(CNC(=O)CNC(=O)OCC1c2ccccc2-c2ccccc21)NCC(=O)N[C@@H](Cc1ccccc1)C(=O)N[C@@H]1CCC(=O)NC1=O` [Fmoc-GGGFepicQ] (Fmoc-GGGF-X3), the half-maximal inhibitory concentration (IC50) on His6-CRBN/DDB1 (setting [5]) turned out to be 7.69e-07 M. The equilibrium dissociation constant (Kd) at His6-CRBN/DDB1 (setting [6]) is 5.39e-07 M.

Molecule `C[C@H](NC(=O)CNC(=O)CNC(=O)CN)C(=O)N[C@H]1CC(=O)NC1=O` [GGGAcN] (H-GGGA-Aspartimide) returned a half-inhibitory concentration (IC50) at His6-CRBN/DDB1 (setting [5]) of 3.44e-07 M. Further, the Kd on His6-CRBN/DDB1 (setting [6]) and on His6-CRBN/DDB1 (setting [7]) was 2.42e-07 M in each case.

Molecule `[2H]C1([2H])CC([2H])(N2Cc3cc(CNC(=O)Nc4ccc(C)c(Cl)c4)ccc3C2=O)C(=O)NC1=O` (racemic) [rac-CC885-d3] came in with a Kd at His6-CRBN/DDB1 (setting [8]) of no more than 4e-09 M. Also, in data set [1] (setting [9]), the DC50 is no more than 2 nM.

For `O=C(CNC(=O)CNC(=O)OCC1c2ccccc2-c2ccccc21)NCC(=O)N[C@@H](Cc1ccccc1)C(=O)N[C@@H]1CC(=O)NC1=O` [Fmoc-GGGFepicN] (Fmoc-GGGF-X1), the IC50 on His6-CRBN/DDB1 (setting [10]) is 4.08e-06 M; at His6-CRBN/DDB1 (pIC50 (M), Protein CRBN), 4.07e-06 M. The Kd on His6-CRBN/DDB1 (setting [6]) is 2.86e-06 M; on His6-CRBN/DDB1 (setting [8]) it was 2.86e-06 M and 2.87e-06 M; on His6-CRBN/DDB1 (pKD (M), Protein CRBN, from IC50 with Correction Factor 1.43), 2.88e-06 M.

On His6-CRBN/DDB1 (setting [5]), `C[C@H](NC(=O)CNC(=O)CNC(=O)CN)C(=O)N[C@@H]1CC(=O)NC1=O` [GGGAepicN] (H-GGGA-X1) gave an IC50 of 1.12e-05 M.

As for `Nc1cccc2c1CN(C1CCC(=O)NC1=O)C2=O` (stereo not drawn) [lenalidomide], the half-life at 100 µM in data set [2] is 4.2 to 4.3 h.

In the case of `[2H]C1([2H])C[C@]([2H])(N2Cc3cc(CNC(=O)Nc4ccc(C)c(Cl)c4)ccc3C2=O)C(=O)NC1=O` [(S)-CC885-d3], the Kd was no more than 3e-09 M on His6-CRBN/DDB1 (setting [8]) and 3.2e-09 ± 1e-10 M at His6-CRBN/DDB1 (predicted KD of the (S)-stereoisomer, ligand displacement assay adjusted for (S)-stereoisomer, (S)-stereoisomer in the (S)-sample, corrected for racemization). For the same molecule, the DC50 was 1.2 ± 0.3 nM in data set [1] ((S) in the (S)-sample, read-out: predicted DC50 of the (S)-stereoisomer, adjusted for (S)-stereoisomer) and no more than 2 nM in data set [1] (setting [9]).

`Cc1ccc(NC(=O)NCc2ccc3c(c2)CN(C2CCC(=O)NC2=O)C3=O)cc1Cl` (racemic) [rac-CC-885]: at His6-CRBN/DDB1 (Protein CRBN), the “pIC50 (M)” value is listed as 8.29 M.

Take GFP-FcN: the in vitro monoubiquitination with K0-ubiquitin mediated by the CRL4^CRBN complex, fold over methylated GFP-FcQ (GFP-FcQMe) with His6-CRBN/DDB1 complex [3] is 7.1 fold.

Take `Cc1sc2c(c1C)C(c1ccc(Cl)cc1)=N[C@@H](CC(=O)NCCCCCCCCC(=O)N[C@@H](Cc1ccccc1)C(=O)N[C@H]1CCC(=O)NC1=O)c1nnc(C)n1-2` [JQ1-FcQ]: the “pIC50 (M)” value at His6-CRBN/DDB1 (Protein CRBN) is recorded as 6.86 M. On His6-CRBN/DDB1 (Protein CRBN, protein […]), the IC50 worked out at 1.38e-07 M. On His6-CRBN/DDB1 (setting [11]), the Kd is 9.65e-08 M and 9.7e-08 M; the “pKD (M)” value was 7.02 M.

Turning to `CN1C(=O)CCC(N2Cc3c(N)cccc3C2=O)C1=O` (stereo not drawn) [Me-Len, reference compound], the IC50 on His6-CRBN/DDB1 (setting [5]) and at His6-CRBN/DDB1 (setting [10]) was 1.53e-05 M each time. For the same molecule, the Kd on His6-CRBN/DDB1 (setting [6]), at His6-CRBN/DDB1 (setting [7]) and at His6-CRBN/DDB1 (setting [8]) was 1.07e-05 M in each case.

In the case of `Nc1cccc2c1CN([C@@H]1CCC(=O)NC1=O)C2=O` [(R)-lenalidomide], in data set [2], the half-life at 100 µM is 4.3 h.

In the data set with His6-CRBN/DDB1 complex [3], GFP-FcQ came in with an in vitro monoubiquitination with K0-ubiquitin mediated by the CRL4^CRBN complex, fold over methylated GFP-FcQ (GFP-FcQMe) of 4.8 fold.

With `Cc1ccc(NC(=O)NCc2ccc3c(c2)CN(C2CCC(=O)NC2=O)C3=O)cc1Cl` (racemic) [rac-CC885, CC885, reference compound], the Kd on His6-CRBN/DDB1 (setting [8]) was no more than 4e-09 M.

GFP-FepicQ registered an in vitro monoubiquitination with K0-ubiquitin mediated by the CRL4^CRBN complex, fold over methylated GFP-FcQ (GFP-FcQMe) in the data set with His6-CRBN/DDB1 complex [3] of 2.4 fold.

For `O=C(CNC(=O)CNC(=O)OCC1c2ccccc2-c2ccccc21)NCC(=O)N[C@@H](Cc1ccccc1)C(=O)N[C@H]1CCC(=O)NC1=O` [Fmoc-GGGFcQ] (Fmoc-GGGF-X2), the IC50 on His6-CRBN/DDB1 (setting [5]) worked out at 1.28e-07 M. On His6-CRBN/DDB1 (setting [6]), this molecule displayed a Kd of 8.94e-08 M.

For the molecule `[2H]C1([2H])CC([2H])(N2Cc3c(N)cccc3C2=O)C(=O)NC1=O` (racemic) [rac-Len-d3], in data set [2], the half-life at 100 µM is 24 to 25 h.

The molecule `O=C(CNC(=O)CNC(=O)OCC1c2ccccc2-c2ccccc21)NCC(=O)N[C@@H](Cc1ccccc1)C(=O)N[C@H]1CC(=O)NC1=O` [Fmoc-GGGFcN] (Fmoc-GGGF-Aspartimide) returned a Kd at His6-CRBN/DDB1 (setting [6]) of 3.67e-08 M.

For the molecule `Cc1sc2c(c1C)C(c1ccc(Cl)cc1)=N[C@@H](CC(=O)NCCCCCCCCC(=O)N[C@@H](Cc1ccccc1)C(=O)N[C@H]1CC(=O)NC1=O)c1nnc(C)n1-2` [JQ1-FcN], at His6-CRBN/DDB1 (Protein CRBN), the “pIC50 (M)” value turned out to be 7.42 M. At His6-CRBN/DDB1 (Protein CRBN, protein […]), this molecule showed an IC50 of 3.8e-08 M. In addition, at His6-CRBN/DDB1 (setting [11]), the Kd is 2.66e-08 M and 2.7e-08 M; the “pKD (M)” value is given as 7.57 M.

Turning to GFP-FepicN, the in vitro monoubiquitination with K0-ubiquitin mediated by the CRL4^CRBN complex, fold over methylated GFP-FcQ (GFP-FcQMe); did not reach statistical significance with His6-CRBN/DDB1 complex [3] is 1.3 fold.

On to `[2H]C1([2H])C[C@@]([2H])(N2Cc3cc(CNC(=O)Nc4ccc(C)c(Cl)c4)ccc3C2=O)C(=O)NC1=O` [(R)-CC885-d3], for which the Kd at His6-CRBN/DDB1 (setting [8]) is 4.01e-07 M. For the same molecule, the DC50 in data set [1] (setting [9]) was determined as 25 nM.

For the molecule `Nc1cccc2c1CN([C@H]1CCC(=O)NC1=O)C2=O` [(S)-lenalidomide], in data set [2], the half-life at 100 µM is 4.2 h.

B1: Fmoc-GGGFcN (peptide)
peptide: Fmoc-GGGF[Aspartimide]
SMILES: O=C(CNC(=O)CNC(=O)OCC1c2ccccc2-c2ccccc21)NCC(=O)N[C@@H](Cc1ccccc1)C(=O)N[C@H]1CC(=O)NC1=O
notes: pentapeptide; the C-terminal N is cyclised to the C-terminal cyclic imide (aspartimide); source: synthetic peptide
For the molecule B1, the IC50 in the data set with His6-CRBN/DDB1 complex [4] stood at 52.4 nM.

B2: GGGAcN (peptide)
peptide: GGGA[Aspartimide]
notes: pentapeptide; the C-terminal N is cyclised to the C-terminal cyclic imide (aspartimide); The sheet prints no Fmoc for this peptide; also called pentapeptide bearing AcN; source: synthetic peptide
In the case of B2, the Kd with His6-CRBN/DDB1 complex [4] came to 242 nM.

B3: GGGAepicN (peptide)
peptide: GGGA[epicN]
notes: pentapeptide; the C-terminal N is cyclised to the aspartimide and is the epimer of that in GGGAcN; The sheet prints no Fmoc for this peptide; also called pentapeptide bearing AepicN; source: synthetic peptide
Consider B3, for which the Kd with His6-CRBN/DDB1 complex [4] was 7850 nM.
